Assays:
[1] = target: T1, Death-associated protein kinase 3 (Homo sapiens, UniProt O43293); test: Inhibition of human recombinant DAPK3 at 1 uM
Target sequence in this assay (O43293 whole entry, looked up): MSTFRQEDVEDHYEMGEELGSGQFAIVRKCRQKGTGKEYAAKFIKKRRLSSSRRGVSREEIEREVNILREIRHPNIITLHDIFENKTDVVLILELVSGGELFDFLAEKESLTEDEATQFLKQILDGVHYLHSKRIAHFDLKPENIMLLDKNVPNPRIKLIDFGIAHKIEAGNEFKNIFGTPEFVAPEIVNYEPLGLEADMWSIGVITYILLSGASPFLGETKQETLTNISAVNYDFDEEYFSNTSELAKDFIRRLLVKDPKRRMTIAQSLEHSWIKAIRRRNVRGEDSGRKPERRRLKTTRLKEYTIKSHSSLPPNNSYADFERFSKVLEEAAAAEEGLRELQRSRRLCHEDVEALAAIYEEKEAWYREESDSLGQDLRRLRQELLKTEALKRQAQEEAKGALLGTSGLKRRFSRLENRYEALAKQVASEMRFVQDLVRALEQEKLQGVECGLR

[2] = target: T1, Death-associated protein kinase 3; test: Inhibition of human recombinant DAPK3 at 10 uM
Target sequence in this assay (O43293 whole entry, looked up): as above

[3] = target: T1, Death-associated protein kinase 3; test: Inhibition of human recombinant DAPK3
Target sequence in this assay (O43293 whole entry): as the sequence (O43293 whole entry, looked up) above

[4] = target: Death-associated protein kinase 1 (Homo sapiens) (UniProt P53355); test: Inhibition of DAPK1 at 10 uM
[5] = target: Serine/threonine-protein kinase Chk2 (Homo sapiens) (UniProt O96017); test: Inhibition of CHK2 at 10 uM
Serine/threonine-protein kinase Chk2 (Homo sapiens), sequence (O96017 whole entry): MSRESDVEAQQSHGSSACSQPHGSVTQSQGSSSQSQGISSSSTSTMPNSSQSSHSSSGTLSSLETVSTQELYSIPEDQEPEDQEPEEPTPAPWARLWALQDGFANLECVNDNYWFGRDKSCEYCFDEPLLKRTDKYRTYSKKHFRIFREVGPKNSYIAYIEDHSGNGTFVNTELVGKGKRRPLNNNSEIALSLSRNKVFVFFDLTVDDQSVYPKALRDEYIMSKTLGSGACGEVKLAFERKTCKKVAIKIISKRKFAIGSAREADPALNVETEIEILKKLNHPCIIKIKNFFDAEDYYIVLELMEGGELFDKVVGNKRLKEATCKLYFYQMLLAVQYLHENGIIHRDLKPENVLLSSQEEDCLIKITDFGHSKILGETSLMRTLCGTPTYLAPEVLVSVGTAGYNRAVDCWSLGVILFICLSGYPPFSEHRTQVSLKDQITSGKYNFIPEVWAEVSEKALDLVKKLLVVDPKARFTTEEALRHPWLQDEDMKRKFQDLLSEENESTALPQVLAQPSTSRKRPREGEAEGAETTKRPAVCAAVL

[6] = target: T2, Serine/threonine-protein kinase D2 (Homo sapiens) (UniProt Q9BZL6); test: Inhibition of PKD2 at 10 uM
T2 sequence (whole entry): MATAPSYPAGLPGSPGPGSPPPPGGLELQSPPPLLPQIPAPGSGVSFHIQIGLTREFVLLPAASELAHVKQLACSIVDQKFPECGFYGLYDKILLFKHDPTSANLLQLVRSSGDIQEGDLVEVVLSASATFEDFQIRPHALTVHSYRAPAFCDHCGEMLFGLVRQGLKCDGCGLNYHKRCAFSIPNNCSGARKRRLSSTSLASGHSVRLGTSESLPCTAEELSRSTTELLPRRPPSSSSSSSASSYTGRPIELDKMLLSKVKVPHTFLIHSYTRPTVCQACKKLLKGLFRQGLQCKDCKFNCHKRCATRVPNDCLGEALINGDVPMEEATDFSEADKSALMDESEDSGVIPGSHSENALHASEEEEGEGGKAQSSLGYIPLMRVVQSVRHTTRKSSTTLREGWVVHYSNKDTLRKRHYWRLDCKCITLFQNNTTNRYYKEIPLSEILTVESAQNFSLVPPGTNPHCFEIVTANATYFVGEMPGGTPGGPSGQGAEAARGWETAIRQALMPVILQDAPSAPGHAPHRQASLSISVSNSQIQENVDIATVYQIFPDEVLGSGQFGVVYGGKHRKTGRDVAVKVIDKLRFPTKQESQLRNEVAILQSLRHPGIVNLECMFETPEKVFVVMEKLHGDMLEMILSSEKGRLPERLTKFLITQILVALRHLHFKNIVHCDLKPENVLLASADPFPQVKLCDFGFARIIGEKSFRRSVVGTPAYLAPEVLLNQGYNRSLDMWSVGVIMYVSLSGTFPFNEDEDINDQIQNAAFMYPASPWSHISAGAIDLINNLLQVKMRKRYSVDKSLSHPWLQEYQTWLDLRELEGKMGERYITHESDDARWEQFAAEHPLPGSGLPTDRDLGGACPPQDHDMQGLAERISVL

[7] = target: Mitogen-activated protein kinase 14 (Homo sapiens) (UniProt Q16539); test: Inhibition of P38alpha at 10 uM
Mitogen-activated protein kinase 14 (Homo sapiens), sequence (Q16539 whole entry): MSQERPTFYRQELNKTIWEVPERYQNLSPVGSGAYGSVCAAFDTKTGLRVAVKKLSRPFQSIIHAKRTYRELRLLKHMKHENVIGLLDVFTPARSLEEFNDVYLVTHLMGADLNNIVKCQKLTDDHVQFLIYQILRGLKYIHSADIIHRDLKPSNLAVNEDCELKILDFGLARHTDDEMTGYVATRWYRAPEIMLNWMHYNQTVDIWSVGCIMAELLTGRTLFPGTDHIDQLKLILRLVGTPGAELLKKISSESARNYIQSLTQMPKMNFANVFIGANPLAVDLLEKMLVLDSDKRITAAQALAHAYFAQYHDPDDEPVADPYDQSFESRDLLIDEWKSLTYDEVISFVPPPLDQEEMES

[8] = target: T3, Protein kinase C zeta type (Homo sapiens) (UniProt Q05513); test: Inhibition of PKCzeta at 10 uM
T3 sequence (whole entry): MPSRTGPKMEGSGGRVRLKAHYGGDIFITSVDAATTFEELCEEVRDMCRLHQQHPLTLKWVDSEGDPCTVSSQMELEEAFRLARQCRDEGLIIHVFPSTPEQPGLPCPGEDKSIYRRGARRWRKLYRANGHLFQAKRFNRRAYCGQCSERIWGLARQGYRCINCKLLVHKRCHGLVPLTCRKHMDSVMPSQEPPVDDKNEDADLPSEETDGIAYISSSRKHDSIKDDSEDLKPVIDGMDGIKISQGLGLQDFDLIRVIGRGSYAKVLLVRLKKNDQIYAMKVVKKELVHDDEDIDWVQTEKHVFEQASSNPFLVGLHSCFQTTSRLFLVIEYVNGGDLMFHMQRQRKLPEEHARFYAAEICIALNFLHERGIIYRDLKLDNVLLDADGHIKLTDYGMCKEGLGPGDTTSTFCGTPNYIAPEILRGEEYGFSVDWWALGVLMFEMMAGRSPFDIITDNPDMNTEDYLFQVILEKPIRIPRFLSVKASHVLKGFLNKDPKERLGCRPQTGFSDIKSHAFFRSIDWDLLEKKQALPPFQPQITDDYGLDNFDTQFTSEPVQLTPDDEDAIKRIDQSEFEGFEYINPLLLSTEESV

[9] = target: Tyrosine-protein kinase Lck (Homo sapiens) (UniProt P06239); test: Inhibition of LCK at 10 uM
[10] = Inhibition of PKA at 10 uM
[11] = target: Mitogen-activated protein kinase 1 (Homo sapiens) (UniProt P28482); test: Inhibition of ERK2 at 10 uM
[12] = target: Tyrosine-protein kinase Lyn (Homo sapiens) (UniProt P07948); test: Inhibition of LYN at 10 uM
[13] = target: RAC-beta serine/threonine-protein kinase (Homo sapiens) (UniProt P31751); test: Inhibition of AKT2 at 10 uM
RAC-beta serine/threonine-protein kinase (Homo sapiens), sequence (P31751 whole entry): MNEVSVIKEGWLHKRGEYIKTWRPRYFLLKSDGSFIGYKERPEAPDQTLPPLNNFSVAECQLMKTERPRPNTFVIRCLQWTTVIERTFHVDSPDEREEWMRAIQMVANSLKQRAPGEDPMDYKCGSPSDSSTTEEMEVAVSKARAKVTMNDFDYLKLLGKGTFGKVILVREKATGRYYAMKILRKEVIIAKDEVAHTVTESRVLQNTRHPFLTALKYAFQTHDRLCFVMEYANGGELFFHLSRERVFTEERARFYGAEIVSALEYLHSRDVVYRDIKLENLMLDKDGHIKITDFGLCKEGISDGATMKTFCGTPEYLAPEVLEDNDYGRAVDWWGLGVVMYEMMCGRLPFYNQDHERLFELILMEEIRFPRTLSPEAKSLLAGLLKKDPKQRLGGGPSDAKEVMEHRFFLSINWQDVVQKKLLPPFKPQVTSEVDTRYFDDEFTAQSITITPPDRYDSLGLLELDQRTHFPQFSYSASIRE

[14] = target: Proto-oncogene tyrosine-protein kinase Src (Homo sapiens) (UniProt P12931); test: Inhibition of SRC at 10 uM
[15] = target: Tyrosine-protein kinase Fyn (Homo sapiens) (UniProt P06241); test: Inhibition of FYN at 10 uM
[16] = target: RAC-alpha serine/threonine-protein kinase (Homo sapiens) (UniProt P31749); test: Inhibition of AKT1 at 10 uM
[17] = target: Glycogen synthase kinase-3 beta (Homo sapiens) (UniProt P49841); test: Inhibition of GSK3-beta at 10 uM
[18] = target: Mitogen-activated protein kinase 3 (Homo sapiens) (UniProt P27361); test: Inhibition of ERK1 at 10 uM
[19] = target: Insulin receptor (Homo sapiens) (UniProt P06213); test: Inhibition of INSR at 10 uM
[20] = target: T4, Aurora kinase A (Homo sapiens) (UniProt O14965); test: Inhibition of Aurora A at 10 uM
T4 sequence (whole entry): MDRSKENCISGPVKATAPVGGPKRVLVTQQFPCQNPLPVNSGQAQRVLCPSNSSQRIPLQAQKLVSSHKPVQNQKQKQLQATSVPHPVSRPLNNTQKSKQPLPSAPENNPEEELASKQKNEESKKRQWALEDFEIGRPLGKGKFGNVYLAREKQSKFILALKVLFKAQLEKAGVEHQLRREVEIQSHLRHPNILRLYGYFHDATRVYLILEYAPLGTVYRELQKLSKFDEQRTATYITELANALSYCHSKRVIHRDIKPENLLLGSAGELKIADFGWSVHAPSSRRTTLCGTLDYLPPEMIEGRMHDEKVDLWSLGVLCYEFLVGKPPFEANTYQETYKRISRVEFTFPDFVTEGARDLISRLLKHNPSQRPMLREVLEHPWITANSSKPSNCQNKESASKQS

[21] = target: T5, Serine/threonine-protein kinase Chk1 (Homo sapiens) (UniProt O14757); test: Inhibition of CHK1 at 10 uM
T5 sequence (whole entry): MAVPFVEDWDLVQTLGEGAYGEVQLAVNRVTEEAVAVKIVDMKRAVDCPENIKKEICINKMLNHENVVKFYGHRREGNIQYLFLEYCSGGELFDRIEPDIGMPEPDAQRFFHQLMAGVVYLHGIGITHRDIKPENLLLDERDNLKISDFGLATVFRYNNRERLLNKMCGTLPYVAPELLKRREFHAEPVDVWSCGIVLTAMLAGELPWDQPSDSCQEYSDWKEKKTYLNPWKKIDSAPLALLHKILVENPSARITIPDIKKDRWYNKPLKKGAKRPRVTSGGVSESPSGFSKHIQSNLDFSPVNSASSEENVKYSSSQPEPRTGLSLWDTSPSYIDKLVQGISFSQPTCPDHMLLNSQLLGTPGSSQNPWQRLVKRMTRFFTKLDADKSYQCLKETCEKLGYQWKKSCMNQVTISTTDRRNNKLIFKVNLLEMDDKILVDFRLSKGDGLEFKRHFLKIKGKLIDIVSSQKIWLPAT

[22] = target: MAP kinase-activated protein kinase 2 (Homo sapiens) (UniProt P49137); test: Inhibition of MAPKAPK2 at 10 uM
MAP kinase-activated protein kinase 2 (Homo sapiens), sequence (P49137 whole entry, looked up): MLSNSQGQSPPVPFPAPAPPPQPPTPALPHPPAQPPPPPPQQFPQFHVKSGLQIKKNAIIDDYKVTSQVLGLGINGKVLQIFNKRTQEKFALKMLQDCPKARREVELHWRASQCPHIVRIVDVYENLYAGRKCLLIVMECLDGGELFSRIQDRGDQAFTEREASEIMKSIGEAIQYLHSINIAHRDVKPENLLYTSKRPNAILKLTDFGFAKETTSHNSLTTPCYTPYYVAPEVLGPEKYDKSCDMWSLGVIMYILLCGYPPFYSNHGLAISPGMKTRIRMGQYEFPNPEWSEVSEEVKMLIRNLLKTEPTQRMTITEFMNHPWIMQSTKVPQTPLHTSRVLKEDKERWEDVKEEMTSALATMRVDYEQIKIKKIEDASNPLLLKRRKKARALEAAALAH

[23] = target: Tyrosine-protein kinase ABL1 (Homo sapiens) (UniProt P00519); test: Inhibition of ABL at 10 uM
Tyrosine-protein kinase ABL1 (Homo sapiens), sequence (P00519 whole entry): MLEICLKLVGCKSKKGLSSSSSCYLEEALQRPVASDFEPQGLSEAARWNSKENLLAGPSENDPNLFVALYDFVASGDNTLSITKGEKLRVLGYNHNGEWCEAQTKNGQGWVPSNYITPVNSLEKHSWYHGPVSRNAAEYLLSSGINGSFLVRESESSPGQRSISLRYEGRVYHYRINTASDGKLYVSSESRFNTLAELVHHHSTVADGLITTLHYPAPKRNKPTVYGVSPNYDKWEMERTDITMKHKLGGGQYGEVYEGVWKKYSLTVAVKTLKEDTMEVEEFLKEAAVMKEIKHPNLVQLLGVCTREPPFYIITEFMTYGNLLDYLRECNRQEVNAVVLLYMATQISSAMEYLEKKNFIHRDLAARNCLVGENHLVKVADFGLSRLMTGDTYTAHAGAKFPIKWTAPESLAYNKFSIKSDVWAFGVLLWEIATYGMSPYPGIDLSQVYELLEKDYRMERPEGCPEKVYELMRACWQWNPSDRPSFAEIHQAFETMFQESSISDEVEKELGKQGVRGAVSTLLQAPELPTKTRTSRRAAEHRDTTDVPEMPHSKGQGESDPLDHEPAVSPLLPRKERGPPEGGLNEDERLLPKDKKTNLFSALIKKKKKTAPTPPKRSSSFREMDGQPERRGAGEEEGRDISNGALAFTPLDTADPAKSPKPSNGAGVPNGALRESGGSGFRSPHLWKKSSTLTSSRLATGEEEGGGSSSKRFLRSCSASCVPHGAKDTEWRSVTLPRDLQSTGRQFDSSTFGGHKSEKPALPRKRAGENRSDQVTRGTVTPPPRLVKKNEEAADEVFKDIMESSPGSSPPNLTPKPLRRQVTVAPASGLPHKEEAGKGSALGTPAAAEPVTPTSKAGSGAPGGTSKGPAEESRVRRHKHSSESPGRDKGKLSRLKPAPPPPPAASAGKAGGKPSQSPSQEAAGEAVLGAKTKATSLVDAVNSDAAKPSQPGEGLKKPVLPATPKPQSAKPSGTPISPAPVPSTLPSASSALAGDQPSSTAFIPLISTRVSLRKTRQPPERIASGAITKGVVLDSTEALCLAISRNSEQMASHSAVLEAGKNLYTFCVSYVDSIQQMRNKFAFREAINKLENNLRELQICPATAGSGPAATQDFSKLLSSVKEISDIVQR

[24] = target: Hepatocyte growth factor receptor (Homo sapiens) (UniProt P08581); test: Inhibition of MET at 10 uM
[25] = target: Ribosomal protein S6 kinase alpha-1 (Homo sapiens) (UniProt Q15418); test: Inhibition of RSK1 at 10 uM
[26] = target: MAP kinase-activated protein kinase 5 (Homo sapiens) (UniProt Q8IW41); test: Inhibition of PRAK at 10 uM

Death-associated protein kinase 1 (Homo sapiens), sequence (P53355 whole entry, looked up): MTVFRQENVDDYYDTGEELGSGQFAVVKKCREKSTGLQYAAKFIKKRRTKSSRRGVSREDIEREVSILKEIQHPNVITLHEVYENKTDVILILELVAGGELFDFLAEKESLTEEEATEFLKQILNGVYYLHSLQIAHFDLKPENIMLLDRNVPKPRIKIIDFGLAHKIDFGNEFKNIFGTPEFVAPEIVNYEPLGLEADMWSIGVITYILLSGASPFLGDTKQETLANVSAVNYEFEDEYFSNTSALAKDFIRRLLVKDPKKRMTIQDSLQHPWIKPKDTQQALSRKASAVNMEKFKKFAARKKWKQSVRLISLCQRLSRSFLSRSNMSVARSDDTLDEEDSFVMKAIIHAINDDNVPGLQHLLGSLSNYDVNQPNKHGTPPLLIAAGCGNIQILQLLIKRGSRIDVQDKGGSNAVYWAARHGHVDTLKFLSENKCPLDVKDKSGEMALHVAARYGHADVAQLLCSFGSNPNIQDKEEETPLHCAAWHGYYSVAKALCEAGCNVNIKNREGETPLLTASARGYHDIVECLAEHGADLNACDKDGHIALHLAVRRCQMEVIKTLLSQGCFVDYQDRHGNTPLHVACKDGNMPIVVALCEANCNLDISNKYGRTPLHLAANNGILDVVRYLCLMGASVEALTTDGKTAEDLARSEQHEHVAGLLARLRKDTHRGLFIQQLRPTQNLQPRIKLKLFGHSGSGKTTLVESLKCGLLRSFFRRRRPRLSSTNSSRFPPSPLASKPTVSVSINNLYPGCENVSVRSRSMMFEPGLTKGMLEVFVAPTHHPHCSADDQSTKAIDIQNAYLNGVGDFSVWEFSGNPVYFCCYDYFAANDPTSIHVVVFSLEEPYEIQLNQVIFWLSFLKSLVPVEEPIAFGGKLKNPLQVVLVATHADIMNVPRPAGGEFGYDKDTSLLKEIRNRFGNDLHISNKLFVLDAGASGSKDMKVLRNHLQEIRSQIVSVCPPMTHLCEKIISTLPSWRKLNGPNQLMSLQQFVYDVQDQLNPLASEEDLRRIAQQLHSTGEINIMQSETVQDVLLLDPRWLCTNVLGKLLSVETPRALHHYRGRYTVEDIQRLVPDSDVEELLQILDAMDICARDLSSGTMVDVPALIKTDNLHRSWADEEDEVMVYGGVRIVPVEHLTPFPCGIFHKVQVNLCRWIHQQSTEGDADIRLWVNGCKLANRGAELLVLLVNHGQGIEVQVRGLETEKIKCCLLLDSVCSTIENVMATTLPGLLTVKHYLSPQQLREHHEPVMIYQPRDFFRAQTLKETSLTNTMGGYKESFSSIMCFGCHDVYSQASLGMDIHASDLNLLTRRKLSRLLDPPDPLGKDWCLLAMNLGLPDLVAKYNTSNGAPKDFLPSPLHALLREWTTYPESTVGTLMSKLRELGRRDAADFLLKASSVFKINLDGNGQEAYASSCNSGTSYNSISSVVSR

O=C1OC(c2cccc(Br)c2)=N/C1=C\c1ccncc1
inhibition [1]: 1% | inhibition [2]: 0%

Cc1ccc(C2=N/C(=C\c3cccnc3)C(=O)O2)cc1[N+](=O)[O-]
inhibition [1]: 72% | IC50 [3]: 534 nM | inhibition [2]: 90%

O=C1OC(c2ccc(Cl)cc2)=C/C1=C\c1cccnc1
inhibition [2]: 3%

O=C1OC(c2ccc(F)c(F)c2)=N/C1=C\c1cccnc1
inhibition [4]: 97% | inhibition [5]: 7% | inhibition [6]: 3% | inhibition [7]: 8% | inhibition [8]: 8% | inhibition [9]: 3% | inhibition [10]: 2% | inhibition [1]: 89% | inhibition [11]: 34% | inhibition [12]: 2% | inhibition [13]: 18% | IC50 [3]: 346 nM | inhibition [14]: 6% | inhibition [15]: 2% | inhibition [2]: 98% | inhibition [16]: 12% | inhibition [17]: 0% | inhibition [18]: 25% | inhibition [19]: 7% | inhibition [20]: 8% | inhibition [21]: 7%

O=C1OC(c2cccc(Br)c2)=N/C1=C\c1cccnc1
inhibition [1]: 100% | IC50 [3]: 148 nM | inhibition [2]: 100%

COc1ccc(C2=N/C(=C\c3cccnc3)C(=O)O2)cc1OC
inhibition [1]: 14% | inhibition [2]: 36%

COc1cc(C2=N/C(=C\c3cccnc3)C(=O)O2)cc(OC)c1OC
inhibition [1]: 26% | inhibition [2]: 33%

O=C1OC(c2ccccc2)=N/C1=C\c1ccncc1
inhibition [1]: 0% | inhibition [2]: 1%

O=C1OC(c2ccc(Cl)cc2Cl)=N/C1=C\c1cccnc1
inhibition [1]: 42% | inhibition [2]: 78%

O=C1OC(c2cccc([N+](=O)[O-])c2)=N/C1=C\c1ccncc1
inhibition [1]: 0% | inhibition [2]: 0%

O=C1OC(c2ccccc2)=N/C1=C\c1cccnc1
inhibition [22]: 5% | inhibition [4]: 98% | inhibition [5]: 4% | inhibition [6]: 7% | inhibition [7]: 3% | inhibition [23]: 16% | inhibition [8]: 3% | inhibition [9]: 9% | inhibition [11]: 7% | inhibition [12]: 10% | inhibition [13]: 13% | IC50 [3]: 583 nM | inhibition [24]: 3% | inhibition [14]: 13% | inhibition [25]: 5% | inhibition [15]: 6% | inhibition [16]: 12% | inhibition [17]: 9% | inhibition [18]: 16% | inhibition [19]: 7% | inhibition [20]: 6% | inhibition [21]: 3%

O=C1OC(c2ccc([N+](=O)[O-])cc2)=N/C1=C\c1cccnc1
inhibition [1]: 90% | IC50 [3]: 291 nM | inhibition [2]: 94%

O=C1OC(C23CC4CC(CC(C4)C2)C3)=N/C1=C\c1cccnc1
inhibition [2]: 45%

O=C1OC(c2ccccc2)=N/C1=C\c1ccccc1
inhibition [2]: 4%

O=C1OC(c2cc(I)ccc2Cl)=N/C1=C\c1ccncc1
inhibition [1]: 83% | IC50 [3]: 227 nM | inhibition [2]: 97%

O=C1OC(c2ccc(Cl)c([N+](=O)[O-])c2)=N/C1=C\c1cccnc1
inhibition [1]: 100% | IC50 [3]: 278 nM | inhibition [2]: 100%

O=C1OC(c2ccc(Cl)c([N+](=O)[O-])c2)=N/C1=C\c1ccncc1
inhibition [1]: 0% | inhibition [2]: 10%

O=C1OC(c2cccc(Cl)c2)=N/C1=C\c1cccnc1
inhibition [1]: 85% | IC50 [3]: 360 nM | inhibition [2]: 97%

O=C1N=C(N2CCCCC2)S/C1=C\c1cccnc1
inhibition [2]: 29%

COc1ccc(C2=N/C(=C\c3cccnc3)C(=O)O2)cc1Br
inhibition [1]: 32% | inhibition [2]: 32%

Cc1cc(C2=N/C(=C\c3cccnc3)C(=O)O2)ccc1Br
inhibition [22]: 2% | inhibition [4]: 82% | inhibition [5]: 19% | inhibition [6]: 11% | inhibition [7]: 5% | inhibition [23]: 7% | inhibition [8]: 5% | inhibition [10]: 19% | inhibition [1]: 88% | inhibition [12]: 0% | inhibition [13]: 28% | IC50 [3]: 278 nM | inhibition [14]: 2% | inhibition [25]: 13% | inhibition [15]: 9% | inhibition [26]: 10% | inhibition [2]: 94% | inhibition [16]: 12% | inhibition [18]: 18% | inhibition [19]: 0% | inhibition [20]: 16% | inhibition [21]: 5%

COc1ccc(C2=N/C(=C\c3cccnc3)C(=O)O2)c(Br)c1
inhibition [1]: 100% | IC50 [3]: 157 nM | inhibition [2]: 92%

O=C1OC(c2ccc([N+](=O)[O-])cc2)=N/C1=C\c1ccncc1
inhibition [1]: 0% | inhibition [2]: 2%

COc1cccc(C2=N/C(=C\c3cccnc3)C(=O)O2)c1
inhibition [1]: 99% | IC50 [3]: 395 nM | inhibition [2]: 100%

Cc1cccc(C2=N/C(=C\c3cccnc3)C(=O)O2)c1
inhibition [22]: 3% | inhibition [4]: 98% | inhibition [6]: 1% | inhibition [7]: 1% | inhibition [23]: 1% | inhibition [8]: 2% | inhibition [1]: 68% | inhibition [13]: 6% | IC50 [3]: 714 nM | inhibition [14]: 5% | inhibition [25]: 15% | inhibition [2]: 96% | inhibition [16]: 5% | inhibition [18]: 0% | inhibition [19]: 3% | inhibition [20]: 3% | inhibition [21]: 5%
